# According to the supplement of paper PMC10627819:
# Tests used:
# [1] = test system: S. aureus Newman; experiment: fitness (endpoint OD595 vs no drug) (fraction); higher = more growth
# Procedure, shortened: (§1)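 Growth medium was TSB, LB Lennox or CY, and plates were kept at 37 °C. Inoculation was at OD595 0.01 in 384-well plates, at 30 µl per well or 55 µl for S. pneumoniae. OD595 was monitored every 30 min for 14 h and background-subtracted using the first reading. Fitness is the optical density on entering stationary phase divided by the robust mean of no-drug controls, with values capped at 1.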
# [2] = test system: S. pneumoniae D39V; experiment: as above
# Procedure, shortened: as §1
# [3] = first compound 0.0195 µg/mL, partner 1.25 µg/mL
# [4] = first compound 0.0195 µg/mL, partner 2.5 µg/mL
# [5] = first compound 0.0195 µg/mL, partner 5 µg/mL
# [6] = first compound 0.039 µg/mL, partner 1.25 µg/mL
# [7] = first compound 0.039 µg/mL, partner 2.5 µg/mL
# [8] = first compound 0.039 µg/mL, partner 5 µg/mL
# [9] = first compound 0.078 µg/mL, partner 1.25 µg/mL
# [10] = first compound 0.078 µg/mL, partner 2.5 µg/mL
# [11] = first compound 0.078 µg/mL, partner 5 µg/mL
# [12] = first compound 0.0195 µg/mL, partner 1 µg/mL
# [13] = first compound 0.0195 µg/mL, partner 2 µg/mL
# [14] = first compound 0.039 µg/mL, partner 1 µg/mL
# [15] = first compound 0.078 µg/mL, partner 1 µg/mL
# [16] = first compound 0.078 µg/mL, partner 2 µg/mL
# [17] = first compound 0.039 µg/mL, partner 0.0625 µg/mL
# [18] = first compound 0.078 µg/mL, partner 0.0625 µg/mL
# [19] = first compound 0.078 µg/mL, partner 0.125 µg/mL
# [20] = first compound 0.078 µg/mL, partner 0.25 µg/mL
# 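Also: OD595 on entry to stationary phase over no-drug wells; at most 1.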
compound,measurement,setting,value
CC1(C)S[C@@H]2[C@H](NC(=O)Cc3ccccc3)C(=O)N2[C@H]1C(=O)O [Penicillin G] + CCN(CC)CCOC(=O)c1ccc(N)cc1 [Procaine],fitness,"[1]; first compound 0.0195 µg/mL, partner 85.5 µg/mL",0.899
same,fitness,"[1]; first compound 0.0195 µg/mL, partner 171 µg/mL",0.876
same,fitness,"[1]; first compound 0.0195 µg/mL, partner 342 µg/mL",0.876
same,fitness,"[1]; first compound 0.039 µg/mL, partner 85.5 µg/mL",0.943
same,fitness,"[1]; first compound 0.039 µg/mL, partner 171 µg/mL",0.925
same,fitness,"[1]; first compound 0.039 µg/mL, partner 342 µg/mL",0.914
same,fitness,"[1]; first compound 0.078 µg/mL, partner 85.5 µg/mL",0.947
same,fitness,"[1]; first compound 0.078 µg/mL, partner 171 µg/mL",0.977
same,fitness,"[1]; first compound 0.078 µg/mL, partner 342 µg/mL",0.952
CC1(C)S[C@@H]2[C@H](NC(=O)Cc3ccccc3)C(=O)N2[C@H]1C(=O)O [Penicillin G] + CN1C2=CC=CC=C2N=C3C1=CC=CC3=O [Pyocyanin],fitness,[1]; [3],0.807
same,fitness,[1]; [4],0.783
same,fitness,[1]; [5],0.434
same,fitness,[1]; [6],0.831
same,fitness,[1]; [7],0.744
same,fitness,[1]; [8],0.334
same,fitness,[1]; [9],0.801
same,fitness,[1]; [10],0.707
same,fitness,[1]; [11],0.302
CC1(C)S[C@@H]2[C@H](NC(=O)Cc3ccccc3)C(=O)N2[C@H]1C(=O)O [Penicillin G] + CN(C)c1cc(NC(=O)CNC(C)(C)C)c(O)c2c1C[C@H]1C[C@H]3[C@H](N(C)C)C(O)=C(C(N)=O)C(=O)[C@@]3(O)C(O)=C1C2=O [Tigecycline],fitness,"[1]; first compound 0.0195 µg/mL, partner 0.039 µg/mL",0.879
same,fitness,"[1]; first compound 0.0195 µg/mL, partner 0.078 µg/mL",0.898
same,fitness,"[1]; first compound 0.0195 µg/mL, partner 0.156 µg/mL",0.904
same,fitness,"[1]; first compound 0.039 µg/mL, partner 0.039 µg/mL",0.879
same,fitness,"[1]; first compound 0.039 µg/mL, partner 0.078 µg/mL",0.919
same,fitness,"[1]; first compound 0.039 µg/mL, partner 0.156 µg/mL",0.924
same,fitness,"[1]; first compound 0.078 µg/mL, partner 0.039 µg/mL",0.864
same,fitness,"[1]; first compound 0.078 µg/mL, partner 0.078 µg/mL",0.913
same,fitness,"[1]; first compound 0.078 µg/mL, partner 0.156 µg/mL",0.913
CC1(C)S[C@@H]2[C@H](NC(=O)Cc3ccccc3)C(=O)N2[C@H]1C(=O)O [Penicillin G] + CN(N=O)C(=O)N[C@@H](C=O)[C@@H](O)[C@H](O)[C@H](O)CO [Streptozotocin],fitness,"[1]; first compound 0.0195 µg/mL, partner 0.15 µg/mL",0.759
same,fitness,"[1]; first compound 0.0195 µg/mL, partner 0.3 µg/mL",0.623
same,fitness,"[1]; first compound 0.0195 µg/mL, partner 0.6 µg/mL",0.501
same,fitness,"[1]; first compound 0.039 µg/mL, partner 0.15 µg/mL",0.731
same,fitness,"[1]; first compound 0.039 µg/mL, partner 0.3 µg/mL",0.627
same,fitness,"[1]; first compound 0.039 µg/mL, partner 0.6 µg/mL",0.486
same,fitness,"[1]; first compound 0.078 µg/mL, partner 0.15 µg/mL",0.709
same,fitness,"[1]; first compound 0.078 µg/mL, partner 0.3 µg/mL",0.621
same,fitness,"[1]; first compound 0.078 µg/mL, partner 0.6 µg/mL",0.493
CC1(C)S[C@@H]2[C@H](NC(=O)Cc3ccccc3)C(=O)N2[C@H]1C(=O)O [Penicillin G] + CN[C@@H]1[C@H](O)[C@H](NC)[C@H]2O[C@@]3(O)C(=O)C[C@@H](C)O[C@H]3O[C@@H]2[C@H]1O [Spectinomycin],fitness,"[1]; first compound 0.0195 µg/mL, partner 4 µg/mL",0.857
same,fitness,"[1]; first compound 0.0195 µg/mL, partner 8 µg/mL",0.852
same,fitness,"[1]; first compound 0.0195 µg/mL, partner 16 µg/mL",0.844
same,fitness,"[1]; first compound 0.0195 µg/mL, partner 32 µg/mL, one replicate",0.462
same,fitness,"[1]; first compound 0.0195 µg/mL, partner 64 µg/mL, one replicate",0.0086
same,fitness,"[1]; first compound 0.039 µg/mL, partner 4 µg/mL",0.848
same,fitness,"[1]; first compound 0.039 µg/mL, partner 8 µg/mL",0.857
same,fitness,"[1]; first compound 0.039 µg/mL, partner 16 µg/mL",0.806
same,fitness,"[1]; first compound 0.039 µg/mL, partner 32 µg/mL, one replicate",0.35
same,fitness,"[1]; first compound 0.039 µg/mL, partner 64 µg/mL, one replicate",0.0192
same,fitness,"[1]; first compound 0.078 µg/mL, partner 4 µg/mL",0.817
same,fitness,"[1]; first compound 0.078 µg/mL, partner 8 µg/mL",0.828
same,fitness,"[1]; first compound 0.078 µg/mL, partner 16 µg/mL",0.802
same,fitness,"[1]; first compound 0.078 µg/mL, partner 32 µg/mL, one replicate",0.272
same,fitness,"[1]; first compound 0.078 µg/mL, partner 64 µg/mL, one replicate",0.0551
CC1(C)S[C@@H]2[C@H](NC(=O)Cc3ccccc3)C(=O)N2[C@H]1C(=O)O [Penicillin G] + CN[C@@H]1[C@H](O[C@H]2[C@H](O[C@H]3[C@H](O)[C@@H](O)[C@H](N=C(N)N)[C@@H](O)[C@@H]3N=C(N)N)O[C@@H](C)[C@]2(O)C=O)O[C@@H](CO)[C@H](O)[C@H]1O [Streptomycin],fitness,[1]; [12],0.903
same,fitness,[1]; [13],0.829
same,fitness,[1]; [14],0.878
same,fitness,"[1]; first compound 0.039 µg/mL, partner 2 µg/mL",0.865
same,fitness,[1]; [15],0.887
same,fitness,[1]; [16],0.863
CC1(C)S[C@@H]2[C@H](NC(=O)Cc3ccccc3)C(=O)N2[C@H]1C(=O)O [Penicillin G] + CN[C@H](CC(C)C)C(=O)N[C@H]1C(=O)N[C@@H](CC(N)=O)C(=O)N[C@H]2C(=O)N[C@H]3C(=O)N[C@H](C(=O)N[C@H](C(=O)O)c4cc(O)cc(O)c4-c4cc3ccc4O)[C@H](O)c3ccc(c(Cl)c3)Oc3cc2cc(c3O[C@@H]2O[C@H](CO)[C@@H](O)[C@H](O)[C@H]2O[C@H]2C[C@](C)(N)[C@H](O)[C@H](C)O2)Oc2ccc(cc2Cl)[C@H]1O [Vancomycin],fitness,"[1]; first compound 0.0195 µg/mL, partner 0.1875 µg/mL",0.895
same,fitness,"[1]; first compound 0.0195 µg/mL, partner 0.375 µg/mL",0.918
same,fitness,"[1]; first compound 0.0195 µg/mL, partner 0.75 µg/mL",0.884
same,fitness,"[1]; first compound 0.039 µg/mL, partner 0.1875 µg/mL",0.885
same,fitness,"[1]; first compound 0.078 µg/mL, partner 0.1875 µg/mL",0.907
same,fitness,"[1]; first compound 0.078 µg/mL, partner 0.375 µg/mL",0.926
same,fitness,"[1]; first compound 0.078 µg/mL, partner 0.75 µg/mL",0.88
CC1(C)S[C@@H]2[C@H](NC(=O)Cc3ccccc3)C(=O)N2[C@H]1C(=O)O [Penicillin G] + COc1ccc(C[C@H](N)C(=O)N[C@H]2[C@@H](O)[C@H](n3cnc4c(N(C)C)ncnc43)O[C@@H]2CO)cc1 [Puromycin],fitness,"[1]; first compound 0.0195 µg/mL, partner 0.39 µg/mL",0.879
same,fitness,"[1]; first compound 0.0195 µg/mL, partner 0.78 µg/mL",0.914
same,fitness,"[1]; first compound 0.0195 µg/mL, partner 1.56 µg/mL",0.929
same,fitness,"[1]; first compound 0.039 µg/mL, partner 0.39 µg/mL",0.933
same,fitness,"[1]; first compound 0.039 µg/mL, partner 0.78 µg/mL",0.935
same,fitness,"[1]; first compound 0.039 µg/mL, partner 1.56 µg/mL",0.941
same,fitness,"[1]; first compound 0.078 µg/mL, partner 0.39 µg/mL",0.909
same,fitness,"[1]; first compound 0.078 µg/mL, partner 0.78 µg/mL",0.868
same,fitness,"[1]; first compound 0.078 µg/mL, partner 1.56 µg/mL",0.961
CC1(C)S[C@@H]2[C@H](NC(=O)Cc3ccccc3)C(=O)N2[C@H]1C(=O)O [Penicillin G] + C[n+]1ccc(-c2cc[n+](C)cc2)cc1 [Paraquat],fitness,[1]; [3],0.827
same,fitness,[1]; [4],0.863
same,fitness,[1]; [5],0.875
same,fitness,[1]; [6],0.832
same,fitness,[1]; [7],0.871
same,fitness,[1]; [8],0.807
same,fitness,[1]; [9],0.876
same,fitness,[1]; [10],0.827
same,fitness,[1]; [11],0.819
CC1(C)S[C@@H]2[C@H](NC(=O)Cc3ccccc3)C(=O)N2[C@H]1C(=O)O [Penicillin G] + Cc1cc(NS(=O)(=O)c2ccc(N)cc2)no1 [Sulfamethoxazol],fitness,[1]; [12],0.929
same,fitness,[1]; [13],0.957
same,fitness,"[1]; first compound 0.0195 µg/mL, partner 8 µg/mL, one replicate",0.859
same,fitness,[1]; [14],0.912
same,fitness,"[1]; first compound 0.039 µg/mL, partner 8 µg/mL, one replicate",0.87
same,fitness,[1]; [15],0.888
same,fitness,[1]; [16],0.879
same,fitness,"[1]; first compound 0.078 µg/mL, partner 8 µg/mL, one replicate",0.882
CC1(C)S[C@@H]2[C@H](NC(=O)Cc3ccccc3)C(=O)N2[C@H]1C(=O)O [Penicillin G] + Cn1nnc(-c2ccc(-c3ccc(N4C[C@H](CO)OC4=O)cc3F)cn2)n1 [Tedizolid],fitness,"[1]; first compound 0.0195 µg/mL, partner 0.0625 µg/mL",0.864
same,fitness,"[1]; first compound 0.0195 µg/mL, partner 0.125 µg/mL",0.803
same,fitness,"[1]; first compound 0.0195 µg/mL, partner 0.25 µg/mL",0.405
same,fitness,[1]; [17],0.861
same,fitness,"[1]; first compound 0.039 µg/mL, partner 0.25 µg/mL",0.339
same,fitness,[1]; [18],0.849
same,fitness,[1]; [19],0.719
same,fitness,[1]; [20],0.305
CN(C)c1cc(NC(=O)CNC(C)(C)C)c(O)c2c1C[C@H]1C[C@H]3[C@H](N(C)C)C(O)=C(C(N)=O)C(=O)[C@@]3(O)C(O)=C1C2=O [Tigecycline] + Cn1nnc(-c2ccc(-c3ccc(N4C[C@H](CO)OC4=O)cc3F)cn2)n1 [Tedizolid],fitness,[1]; [17],0.972
same,fitness,[1]; [18],0.941
same,fitness,[1]; [19],0.844
same,fitness,[1]; [20],0.469
same,fitness,"[1]; first compound 0.156 µg/mL, partner 0.0625 µg/mL",0.965
same,fitness,"[1]; first compound 0.156 µg/mL, partner 0.25 µg/mL",0.466
same,fitness,"[2]; first compound 0.65 µg/mL, partner 0.03125 µg/mL",0.923
same,fitness,"[2]; first compound 0.65 µg/mL, partner 0.0625 µg/mL",0.934
same,fitness,"[2]; first compound 0.65 µg/mL, partner 0.125 µg/mL",0.81
same,fitness,"[2]; first compound 0.65 µg/mL, partner 0.25 µg/mL",0.653
same,fitness,"[2]; first compound 0.65 µg/mL, partner 0.5 µg/mL",0.379
same,fitness,"[2]; first compound 1.3 µg/mL, partner 0.03125 µg/mL",0.911
same,fitness,"[2]; first compound 1.3 µg/mL, partner 0.0625 µg/mL",0.903
same,fitness,"[2]; first compound 1.3 µg/mL, partner 0.125 µg/mL",0.791
same,fitness,"[2]; first compound 1.3 µg/mL, partner 0.25 µg/mL",0.658
same,fitness,"[2]; first compound 1.3 µg/mL, partner 0.5 µg/mL",0.353
same,fitness,"[2]; first compound 2.6 µg/mL, partner 0.03125 µg/mL",0.884
same,fitness,"[2]; first compound 2.6 µg/mL, partner 0.0625 µg/mL",0.943
same,fitness,"[2]; first compound 2.6 µg/mL, partner 0.125 µg/mL",0.827
same,fitness,"[2]; first compound 2.6 µg/mL, partner 0.25 µg/mL",0.669
same,fitness,"[2]; first compound 2.6 µg/mL, partner 0.5 µg/mL",0.375
